Patent US20060142395A1, “Modulation of intracellular calcium signaling by N-acylethanolamines” (University of North Texas Health Science Center, priority 2003, published 2006)
Where two headings read alike, the source gives them in different places.

Experiments:
IP3R = assay: Western blot of phosphothreonine on IP3R in retina tissue in vitro; type: cell-based, mouse; settings: 100 nM, 60 min, vs vehicle control
From the text: Chemo-luminescence-enhanced Western blotting as a sensitive method to evaluate changes in intracellular signaling. A crucial factor in the determination of signaling proteins mediating neuroprotection is the specificity of reagents used for immunolocalization. As disclosed herein, a number of antibodies identified and characterized (Tables 1 and 2) and the conditions that allow full identification of signaling proteins mediating NAE responses through NAEs in neurons provided. Using the sensitive chemo-luminescence-enhanced Western blotting technique, changes were detected in signaling protein composition. Furthermore, immunodetection methods allow an analysis of the changes in the phosphorylation status of signaling proteins in experiments assessing the neuroprotective functions of NAEs. The high temporal and quantitative sensitivity of the assay system may be especially useful in our in vitro and in vivo model systems of neurotoxicity which will measure small but functionally relevant initial changes associated with neuronal damage. In additional studies, the effects of lipophilic hormones on the phosphorylation status of intracellular calcium channels was determined. […]
The high temporal and quantitative sensitivity of the assay system may be especially useful in our model systems which will produce functionally relevant initial changes associated with neuronal damage.

[1] = target: T1, type 2 IP3R from nuclei of HepG2 cells (Homo sapiens, UniProt Q14571); assay: Planar lipid bilayer single channel recording of native type 2 IP3R; type: biochemical
T1 construct: biophysical properties of native type 2 IP3R isolated from cells; endogenous in cells; host or cells: HepG2 cells, nuclei / nuclear envelope membranes
From the text: Electrophysiological recording of ICCs is a well established technique used to measure the effects on calcium levels based on external stimuli (83, 115-117). The planar lipid bilayer technique has been used by the principal investigator to determine the function of ICCs in neurons and non-neuronal cells. The inventors isolated type 2 IP3R from nuclei of HepG2 cells using the same techniques described herein. These studies represent the first determination of the biophysical properties of native type 2 IP3R isolated from cells. All previous studies on type 2 IP3R used artificially expressed type 2 IP3R of cells that had been transfected with the respective cDNA (118-119). Single channel activity was examined using the Planar Lipid Bilayer Membrane technique. […] The lack of feedback inhibition by high concentrations of Ca^2+ is again similar to what has been observed in the recombinant type 2 IP3R (118, 121). […] Both the increased sensitivity to IP3 and the lack of Ca2+-induced inactivation distinguishes the type 2 IP3R from the well-characterized type 1 IP3R. By isolating the receptor with its associated proteins from a functional cellular environment, properties influenced by accessory proteins can be readily assessed with single channel electrophysiology. Data obtained from these experiments analyzing the single channel characteristics of ICCs will provide the biophysical information necessary to correlate intracellular signaling data with function in live cells and in vivo, as shown hereinbelow.
Planar lipid bilayer single channel electrophysiology. ER vesicles or artificial liposomes containing ICCs may be incorporated into planar lipid bilayers and channel activity may be recorded electrophysiologically with the planar lipid bilayer being equivalent to the plasma membrane patch of patch clamp electrophysiology. […] Proper insertion of the ICCs may be monitored by appropriate stimulation of channels on the cytosolic side (IP3R: Ca^2+, IP3; RyR: Ca^2+, caffeine, cADPR; pc-2: Ca^2+, activating membrane potential; 77, 83, 115-117, 141). […] Channel insertion and activity may be recorded with Ag/AgCl electrodes contacting the buffer filled compartments via KCl containing agarose bridges. Activity of a single channel protein can be monitored because it passes enough current to be measured electronically using an amplifier. […] Single channel conductance, voltage-dependence, dwell times and dependence on intracellular free Ca^2+ concentrations may be determined using standard methods in the presence of blockers of other ICCs (IP3R: no IP3, heparin; RyR: ryanodine, ruthenium red; pc-2: lack of activating membrane potential; 77, 83). […]

type 1 IP3R = type 1 IP3R (Homo sapiens, UniProt Q14643); settings: read-out: half maximal activation by IP3; cited from earlier work
recombinant type 2 IP3R = recombinant type 2 IP3R (Homo sapiens, UniProt Q14571); settings: read-out: EC50-value for IP3; cited from earlier work
HT22 neurons = assay: Neuroprotection from L-glutamate toxicity (oxidative stress); type: cell-based
Method: NAE protects neurons in vitro from oxidative stress and glutamate toxicity. Next, the neuroprotective potential effects of NAEs were determined by culturing an immortalized hippocampal neuron cell line, HT 22, a model system used extensively. […] The mechanism of neurotoxicity is depletion of intracellular glutathione stores by inhibition of the cysteine transport and subsequently of glutathione synthesis.
The following assays may be used to assess neuronal viability and different stages of cell death. Optical assessment._Changes in cell morphology (apoptotic and necrotic morphology) and cell number may be used as an initial assessment of neurotoxicity and neuroprotection (see preliminary results in FIG. 8) using bright field differential interference contrast microscopy (Olympus IX-70, Olympus Corp., Japan; SimplePCI, C-imaging systems, Compix, Inc.).

type 2 RyR = target: T2, type 2 RyR (Mus musculus, UniProt E9Q401); assay: Planar lipid bilayer single channel recording of RyR2; type: biochemical
T2 construct: First, type 2 RyR were isolated from mouse; from tissue; host or cells: mouse
T2 sequence (E9Q401 whole entry): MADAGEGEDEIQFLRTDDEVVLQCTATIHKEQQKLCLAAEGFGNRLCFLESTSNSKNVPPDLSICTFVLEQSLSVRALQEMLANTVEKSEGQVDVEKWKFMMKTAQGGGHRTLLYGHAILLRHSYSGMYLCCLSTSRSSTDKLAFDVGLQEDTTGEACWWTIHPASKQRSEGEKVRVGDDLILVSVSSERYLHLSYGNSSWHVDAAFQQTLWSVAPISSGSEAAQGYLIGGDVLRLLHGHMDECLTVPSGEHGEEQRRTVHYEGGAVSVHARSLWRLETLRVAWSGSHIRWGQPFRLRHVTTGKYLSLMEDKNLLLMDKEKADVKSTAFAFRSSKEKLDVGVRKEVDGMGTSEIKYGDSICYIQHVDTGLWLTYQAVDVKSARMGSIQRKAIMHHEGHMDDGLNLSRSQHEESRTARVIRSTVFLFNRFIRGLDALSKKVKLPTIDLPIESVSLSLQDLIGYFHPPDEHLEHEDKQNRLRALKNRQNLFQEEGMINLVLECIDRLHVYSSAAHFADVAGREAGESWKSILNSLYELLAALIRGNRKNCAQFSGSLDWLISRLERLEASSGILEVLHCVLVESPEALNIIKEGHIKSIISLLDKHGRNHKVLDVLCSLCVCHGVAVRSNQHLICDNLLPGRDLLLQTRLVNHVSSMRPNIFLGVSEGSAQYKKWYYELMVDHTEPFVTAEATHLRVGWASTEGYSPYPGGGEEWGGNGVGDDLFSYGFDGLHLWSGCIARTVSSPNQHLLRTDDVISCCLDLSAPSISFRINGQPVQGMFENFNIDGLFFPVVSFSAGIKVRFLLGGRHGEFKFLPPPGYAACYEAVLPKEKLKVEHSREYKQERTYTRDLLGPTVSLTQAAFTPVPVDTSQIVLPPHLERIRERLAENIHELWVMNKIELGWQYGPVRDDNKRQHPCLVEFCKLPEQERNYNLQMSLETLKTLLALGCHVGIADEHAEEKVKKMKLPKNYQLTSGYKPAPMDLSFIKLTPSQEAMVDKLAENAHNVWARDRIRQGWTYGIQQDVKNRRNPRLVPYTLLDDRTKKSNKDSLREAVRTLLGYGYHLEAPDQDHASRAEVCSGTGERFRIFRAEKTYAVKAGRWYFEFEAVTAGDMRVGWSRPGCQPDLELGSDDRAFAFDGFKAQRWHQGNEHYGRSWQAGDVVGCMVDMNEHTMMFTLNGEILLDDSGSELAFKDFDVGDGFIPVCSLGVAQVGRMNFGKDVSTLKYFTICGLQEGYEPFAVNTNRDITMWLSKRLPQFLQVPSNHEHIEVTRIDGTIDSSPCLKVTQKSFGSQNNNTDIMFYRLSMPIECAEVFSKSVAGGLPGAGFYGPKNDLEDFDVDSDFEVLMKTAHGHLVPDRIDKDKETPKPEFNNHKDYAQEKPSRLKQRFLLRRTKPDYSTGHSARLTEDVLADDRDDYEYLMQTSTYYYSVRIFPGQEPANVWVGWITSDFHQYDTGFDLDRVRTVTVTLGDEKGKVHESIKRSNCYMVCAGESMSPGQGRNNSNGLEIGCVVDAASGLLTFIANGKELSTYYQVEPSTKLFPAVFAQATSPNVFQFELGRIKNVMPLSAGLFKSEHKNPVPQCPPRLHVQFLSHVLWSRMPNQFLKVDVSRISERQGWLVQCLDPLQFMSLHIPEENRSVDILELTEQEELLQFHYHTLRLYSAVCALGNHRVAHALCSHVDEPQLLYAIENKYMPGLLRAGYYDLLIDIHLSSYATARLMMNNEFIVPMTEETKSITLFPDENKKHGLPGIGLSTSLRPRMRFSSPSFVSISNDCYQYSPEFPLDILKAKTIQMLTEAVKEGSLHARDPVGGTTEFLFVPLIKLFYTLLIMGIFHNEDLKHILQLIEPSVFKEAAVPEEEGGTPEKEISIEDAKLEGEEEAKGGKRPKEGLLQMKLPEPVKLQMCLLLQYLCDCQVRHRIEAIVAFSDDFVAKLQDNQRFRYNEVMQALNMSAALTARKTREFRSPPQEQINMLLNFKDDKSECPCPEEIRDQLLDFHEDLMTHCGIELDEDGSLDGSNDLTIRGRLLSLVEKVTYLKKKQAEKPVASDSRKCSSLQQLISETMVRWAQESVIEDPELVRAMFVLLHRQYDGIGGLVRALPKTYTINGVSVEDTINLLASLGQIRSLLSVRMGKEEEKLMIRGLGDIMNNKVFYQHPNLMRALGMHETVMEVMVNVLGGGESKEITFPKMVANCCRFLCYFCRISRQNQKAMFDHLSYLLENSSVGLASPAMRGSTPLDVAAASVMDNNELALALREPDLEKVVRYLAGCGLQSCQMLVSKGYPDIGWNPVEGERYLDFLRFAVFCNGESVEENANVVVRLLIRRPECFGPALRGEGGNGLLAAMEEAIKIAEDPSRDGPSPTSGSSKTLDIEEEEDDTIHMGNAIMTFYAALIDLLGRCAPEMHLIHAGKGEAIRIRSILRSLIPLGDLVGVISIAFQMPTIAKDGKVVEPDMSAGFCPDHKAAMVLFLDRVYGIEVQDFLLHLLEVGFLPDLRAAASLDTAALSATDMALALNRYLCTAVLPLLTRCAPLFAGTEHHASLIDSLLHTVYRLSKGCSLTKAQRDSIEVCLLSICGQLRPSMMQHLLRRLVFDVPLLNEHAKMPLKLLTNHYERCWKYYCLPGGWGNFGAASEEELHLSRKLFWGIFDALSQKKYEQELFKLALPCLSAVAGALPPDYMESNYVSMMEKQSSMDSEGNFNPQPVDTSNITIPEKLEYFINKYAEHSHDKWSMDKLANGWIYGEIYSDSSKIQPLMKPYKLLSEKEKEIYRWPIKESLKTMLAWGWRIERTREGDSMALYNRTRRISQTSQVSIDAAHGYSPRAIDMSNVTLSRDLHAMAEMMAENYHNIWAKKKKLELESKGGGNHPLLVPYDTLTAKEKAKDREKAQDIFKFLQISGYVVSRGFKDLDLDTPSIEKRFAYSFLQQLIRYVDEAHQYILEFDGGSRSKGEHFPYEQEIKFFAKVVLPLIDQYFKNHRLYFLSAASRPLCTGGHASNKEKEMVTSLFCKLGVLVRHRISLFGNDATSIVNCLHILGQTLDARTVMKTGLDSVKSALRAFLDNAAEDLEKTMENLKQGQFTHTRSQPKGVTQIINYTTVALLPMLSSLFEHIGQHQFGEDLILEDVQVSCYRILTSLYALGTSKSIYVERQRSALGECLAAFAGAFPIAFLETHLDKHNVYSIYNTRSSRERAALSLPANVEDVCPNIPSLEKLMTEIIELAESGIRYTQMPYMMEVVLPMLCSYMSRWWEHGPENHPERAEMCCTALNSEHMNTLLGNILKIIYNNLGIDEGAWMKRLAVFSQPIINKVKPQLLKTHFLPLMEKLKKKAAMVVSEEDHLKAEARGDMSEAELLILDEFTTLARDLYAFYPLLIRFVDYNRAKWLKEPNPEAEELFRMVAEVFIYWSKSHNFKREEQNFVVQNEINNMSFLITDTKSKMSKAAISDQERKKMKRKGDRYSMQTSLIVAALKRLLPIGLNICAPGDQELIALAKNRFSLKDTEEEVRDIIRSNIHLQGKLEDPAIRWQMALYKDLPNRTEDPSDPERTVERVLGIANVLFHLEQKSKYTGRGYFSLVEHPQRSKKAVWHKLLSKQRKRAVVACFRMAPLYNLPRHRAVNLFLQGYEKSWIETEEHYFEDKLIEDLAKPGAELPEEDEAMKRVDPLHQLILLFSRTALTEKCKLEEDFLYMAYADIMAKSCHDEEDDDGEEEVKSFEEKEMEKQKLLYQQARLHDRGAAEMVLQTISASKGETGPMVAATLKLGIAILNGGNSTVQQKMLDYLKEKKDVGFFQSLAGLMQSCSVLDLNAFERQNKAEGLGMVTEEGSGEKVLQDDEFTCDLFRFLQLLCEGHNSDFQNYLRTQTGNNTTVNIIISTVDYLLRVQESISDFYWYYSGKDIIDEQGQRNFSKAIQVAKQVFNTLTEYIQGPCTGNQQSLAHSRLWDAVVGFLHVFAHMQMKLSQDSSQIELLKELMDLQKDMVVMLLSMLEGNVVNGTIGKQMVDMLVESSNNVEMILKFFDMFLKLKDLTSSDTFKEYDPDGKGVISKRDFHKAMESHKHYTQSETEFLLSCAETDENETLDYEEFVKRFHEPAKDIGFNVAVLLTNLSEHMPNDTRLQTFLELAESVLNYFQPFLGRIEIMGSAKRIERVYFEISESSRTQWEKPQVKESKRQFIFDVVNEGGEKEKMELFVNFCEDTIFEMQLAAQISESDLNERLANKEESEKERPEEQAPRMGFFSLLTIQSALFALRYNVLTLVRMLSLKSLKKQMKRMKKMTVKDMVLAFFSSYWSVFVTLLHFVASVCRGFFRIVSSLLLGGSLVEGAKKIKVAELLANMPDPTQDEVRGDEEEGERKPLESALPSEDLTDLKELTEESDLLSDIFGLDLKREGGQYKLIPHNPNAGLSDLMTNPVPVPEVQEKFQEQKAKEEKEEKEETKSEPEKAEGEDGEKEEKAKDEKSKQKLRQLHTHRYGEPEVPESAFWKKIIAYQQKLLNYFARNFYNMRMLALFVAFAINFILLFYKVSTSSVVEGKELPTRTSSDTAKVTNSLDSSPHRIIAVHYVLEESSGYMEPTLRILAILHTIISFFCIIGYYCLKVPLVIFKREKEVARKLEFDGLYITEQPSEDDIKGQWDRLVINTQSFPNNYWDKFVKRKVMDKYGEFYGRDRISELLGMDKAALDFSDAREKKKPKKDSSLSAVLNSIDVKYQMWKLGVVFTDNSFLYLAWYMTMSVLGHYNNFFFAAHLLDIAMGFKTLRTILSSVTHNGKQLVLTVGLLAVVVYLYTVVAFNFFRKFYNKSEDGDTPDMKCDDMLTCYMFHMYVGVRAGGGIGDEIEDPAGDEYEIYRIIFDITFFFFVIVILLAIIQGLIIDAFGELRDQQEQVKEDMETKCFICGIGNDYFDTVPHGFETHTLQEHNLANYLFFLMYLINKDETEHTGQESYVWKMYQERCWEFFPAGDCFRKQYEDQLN
Method: NAEs differentially regulate the activity of ICCs. First, type 2 RyR were isolated from mouse. Briefly, single channel activity was examined using the Planar Lipid Bilayer Membrane technique. […] Channel activity was initiated by cytosolic Ca^2+ concentrations of 10 nM and higher.
(§1) Next, the effect of NAE 12:0 on mouse RyRs was determined. NAE 12:0 dose-dependently and isoform-specifically regulated the function of RyRs and represent the first pharmacological tool to differentially manipulate individual intracellular calcium channel isoforms (FIG. 5). […] Measured at sub-maximally activating Ca^2+ concentrations (RyR type I: pCa 6; RyR type II: pCa 6.5) 500 nM NAE 12:0 increased RyR type I activity by 42% whereas the same concentration decreased RyR type II activity by 64% (FIG. 5).
Planar lipid bilayer single channel electrophysiology. ER vesicles or artificial liposomes containing ICCs may be incorporated into planar lipid bilayers and channel activity may be recorded electrophysiologically with the planar lipid bilayer being equivalent to the plasma membrane patch of patch clamp electrophysiology. Lipid bilayer membranes may be formed in a hole in a Teflon partition, which separates two buffer filled compartments (phosphatidylethanolamine and phosphatidylserine, 3:1 w/w, dissolved in decane, 40 mg lipid per ml, Avanti Polar Lipids, Alabaster, Ala.). Vesicles containing pc-2 may be added to one compartment (corresponding to the cytosolic compartment) and fuse with the bilayer leaving the channels contained in the vesicle as the only electrical connection between the two compartments. The buffer on the cytosolic side of the channel is a 250 mM HEPES-Tris solution, pH 7.35 and a 250 mM HEPES, 55 mM Ba(OH)2 (or defined concentration of other current carrier, such as Ca(OH)2 or Mg(OH)2) solution, pH 7.35 constitutes the buffer on the trans side of the bilayer. Proper insertion of the ICCs may be monitored by appropriate stimulation of channels on the cytosolic side (IP3R: Ca^2+, IP3; RyR: Ca^2+, caffeine, cADPR; pc-2: Ca^2+, activating membrane potential; 77, 83, 115-117, 141). Improperly inserted channels that are less than 5% under the described conditions will not be included in the analysis. Channel insertion and activity may be recorded with Ag/AgCl electrodes contacting the buffer filled compartments via KCl containing agarose bridges. Activity of a single channel protein can be monitored because it passes enough current to be measured electronically using an amplifier. Altering the divalent cation species on the luminal side of the channel that carries the current will test ion selectivity. Single channel conductance, voltage-dependence, dwell times and dependence on intracellular free Ca^2+ concentrations may be determined using standard methods in the presence of blockers of other ICCs (IP3R: no IP3, heparin; RyR: ryanodine, ruthenium red; pc-2: lack of activating membrane potential; 77, 83). Modulating reagents may be added to the cytosolic side of the protein using a perfusion system (77, 83).

RyR type I = target: T3, RyR type I (Mus musculus, UniProt E9PZQ0); assay: Planar lipid bilayer single channel recording of RyR type I; type: biochemical
T3 construct: from tissue; host or cells: mouse
Method: as §1
Planar lipid bilayer single channel electrophysiology. ER vesicles or artificial liposomes containing ICCs may be incorporated into planar lipid bilayers and channel activity may be recorded electrophysiologically with the planar lipid bilayer being equivalent to the plasma membrane patch of patch clamp electrophysiology. […] Proper insertion of the ICCs may be monitored by appropriate stimulation of channels on the cytosolic side (IP3R: Ca^2+, IP3; RyR: Ca^2+, caffeine, cADPR; pc-2: Ca^2+, activating membrane potential; 77, 83, 115-117, 141). […] Channel insertion and activity may be recorded with Ag/AgCl electrodes contacting the buffer filled compartments via KCl containing agarose bridges. Activity of a single channel protein can be monitored because it passes enough current to be measured electronically using an amplifier. […]

[2] = system: primary cultures of hippocampal neurons; assay: Ca2+ imaging of L-glutamate induced Ca2+ transients (fluo-3); type: cell-based; settings: 100 μM, 30 min preincubation, 100 μM L-Glutamate stimulus
Method: Both single wavelength (high sensitivity) and ratiometric (quantitative analysis) fluorescent Ca^2+ indicator dyes may be used. Various parameters may be studies, such as substrate adherence, dye concentration, and culture conditions, have been optimized for measuring acutely isolated neurons as well as neuronal cell lines, as will be known to the skilled artisan. NAEs influence intracellular Ca2+ homeostasis. Next, studies were conducted using primary cultures of hippocampal neurons to determine the effects of NAEs on intracellular Ca^2+ signaling. In these studies, the influence of a bath-based application of NAE 16:0 on intracellular Ca^2+ signaling of primary hippocampal neurons was analyzed. Hippocampal neurons like most other CNS neurons express RyR isoform 2. Some neurons also express RyR3 and RyR1 is found predominantly in glial cells.
FIGS. 6A to 6E demonsatrate the effect of NAEs on primary isolated and cultured hippocampal neurons were exposed to 100 μM L-Glutamate. FIG. 6A show the DIC image of a neuron and the fluorescence of the calcium indicator dye fluo-3 in the same cell at resting levels (FIG. 6B) and after L-Glutamate stimulation (FIG. 6C; scale bar: 25 μm). […] When the hippocampal neurons were stimulated with L-glutamate, this triggers an influx of extracellular Ca^2+ and a prolonged release of Ca^2+ from intracellular stores (FIG. 6D). […]

[3] = system: ovariectomized (OVX) rats; assay: Middle cerebral artery occlusion, cerebral ischemia-reperfusion injury; type: in vivo
Akt = settings: primary hippocampal neurons, 100 μM, 60 min, total Akt unchanged
Method: Western Blot Analysis. Cells may be lysed in lysis buffer (50 mM Tris (pH 7.4), 150 mM NaCl, 10% glycerol, 1 mM EGTA, 1 mM Na3VO4, 5 μM ZnCl2, 100 mM NaF, 1% Triton X-100, 10 μg/ml aprotinin, 1 μg/ml leupeptin, and 1 mM PMSF) and snap frozen in liquid nitrogen. Following homogenization, by trituration of the cells through a 22 Ga needle, and centrifugation at 100,000×g for 15 min at 4° C., resulting supernatants (lysates) are normalized for protein content (Lowry Assay, Biorad DC Protein Assay Kit). 25 mg of protein from each sample will then be separated on a 10% polyacrylamide gel (SDS/PAGE) followed by transfer onto PVDF membranes (0.22 mm pore size, Biorad, Hercules, Calif.). The membranes are then blocked overnight with 3% BSA (Fraction V; Sigma) or in Tris-buffered saline containing 0.2% Tween-20 (TBS-T) and probed with the appropriate antibody. […] For Akt phosphorylation, rabbit anti-phosphoAkt (Ser473) or rabbit anti-phosphoAkt(Thr308) (Cell Signaling Technology); for Akt protein assessment, rabbit anti-Akt (New England Biolabs). Binding of the primary antibody to the membrane may be detected using a secondary antibody (either goat anti-rabbit or goat anti-mouse), conjugated to horseradish peroxidase (HRP; 1:40,000, Pierce, Rockford, Ill.) and visualized using enzyme-linked chemiluminescence (ECL; Amersham, Arlington Heights, Ill.). […]

## CC(=O)[C@H]1CC[C@H]2[C@@H]3CCC4=CC(=O)CC[C@]4(C)[C@H]3CC[C@]12C [progesterone]
IP3R
  phosphothreonine immunoreactivity on the IP3R: increase

## calmodulin
[1]; excess amounts, preliminary experiments
  effect on lack of Ca2+ inhibition of the channel: did not change this behavior

## O=P(O)(O)O[C@@H]1[C@H](O)[C@H](O)[C@@H](OP(=O)(O)O)[C@H](OP(=O)(O)O)[C@H]1O [IP3, inositol 1,4,5-trisphosphate]
Type 1 IP3R
  EC50: 500 nM
Recombinant type 2 IP3R
  EC50: 58 nM
[1]
  cytosolic IP3 concentration that initiates channel activity: ≥ 10 nM
[1]; native channel, data not shown, read-out: half maximal activation, dependence on cytosolic IP3 concentration
  EC50: 64 nM

## heparin
[1]; heparin 50 μg/ml
  block of channel activity: blocked

## CCCCCCCCCCCC(=O)NCCO [NAE 12:0]
HT22 neurons
  protection from L-glutamate toxicity: dose-dependently protects
HT22 neurons; HT-22 cells, even at high concentrations, no L-glutamate
  effect of NAE alone on neuronal viability: no effect
HT22 neurons; in the presence of the NAE
  number of dead cells after L-glutamate insult: significantly reduced
Type 2 RyR; 500 nM, pCa 6.5, n=3, FIG. 5
  decrease of RyR type II activity: 64%
Type 2 RyR; RyR 2
  change of single channel conductance and amplitude: Neither NAE 12:0 nor NAE 18:2 changed
RyR type I; 500 nM, pCa 6, n=3, FIG. 5
  increase of RyR type I activity: 42%
RyR type I; RyR 1
  change of single channel conductance and amplitude: Neither NAE 12:0 nor NAE 18:2 changed

## CCCCCCCCCCCCCCCC(=O)NCCO [NAE 16:0]
[2]
  amplitude of Ca2+ transients: significantly decreased
  duration of Ca2+ transients: significantly decreased
HT22 neurons
  effect of NAE alone on neuronal viability: no effect
HT22 neurons; FIG. 10 vs FIG. 9
  potency in neuroprotection, comparison: higher potency in neuroprotection than NAE 12:0
Type 2 RyR; 0.1 μM
  channel open frequency: reduced significantly
  channel open probability: reduction
  dwell time: reduced significantly
Type 2 RyR; higher, micromolar concentrations, FIG. 4
  channel activity at higher concentrations: almost complete block
Type 2 RyR; in presence of NAE 16:0
  single channel amplitude (not affected): 3.9±0.1 pA
  single channel conductance (not affected): 110±8 pS
Type 2 RyR; pCa 6, n=3, FIG. 4
  RyR2 channel activity: dose-dependently decreased
[3]; 10 mg/kg sc, 1 hr MCAO, 24 hr reperfusion, N=7/group, P<0.05 vs OVX
  protection of cerebral cortex and basal ganglia (infarct volume, TTC): protected
[3]; acute (sc 6 h prior and immediately before MCAO, 10 mg/kg) and chronic (1 day prior) regimen
  protection of CNS tissue from MCA occlusion-induced ischemic damage: effectively protected
Akt
  phosphorylated/active Akt: significant increase

## N.N.N.N.N.N.N.N.N.N.N.N.N.N.[Cl-].[Cl-].[Cl-].[Cl-].[Cl-].[Cl-].[O-2].[O-2].[Ru+3].[Ru+3].[Ru+4] [ruthenium red, reference compound]
Type 2 RyR; ruthenium red 20 μM
  block of channel activity: blocked
